The source of these data is patent US4713247A, “Long-acting formulation of cefaclor” (priority 1983, dated 1987).

In general, MIC refers to the lowest concentration found to suppress growth.

In brackets after ≈: the same amount, converted by molar mass. Entries after “also recorded” stand apart in the source; their conditions may differ. Where two headings read alike, the source gives them in different places.

Data set [1] concerns Staphylococcus aureus No. 1021. Description: Susceptibility (MIC), Staphylococcus aureus No. 1021 (Table 3). The format is cell-based. As to the method:
(§1) 1.56 μg/ml: The value was determined by the above-identified method, where Muller-Hinton agar (Difco) as the medium was employed. Method 1.
(§2) The same procedures as in Experiment 3. were applied to the following strains. The following MIC values were also determined according to the same method as in Experiment 3.
(§3) The values with *^1 or *^2 were determined by the method 1 or 2
(§4) disclosed in Experiment 3, respectively.

The conditions of data set [2]: relative to CEX; cited from earlier work.
Data set [3] deals with Escherichia coli NIH JC-2. Description: Minimum inhibitory concentration, Escherichia coli NIH JC-2 (Table 1). The data set is classed as cell-based. The following applies: NIHJC2, dilution method, Chemotherapy 29(1), 76-79 (1981). The protocol: (§5) Minimum Inhibitory Concentrations (MICs) were assayed according to the
(§6) dilution method disclosed in Chemotherapy 29(1), 76-79 (1981).

In data set [4] the test system is Staphylococcus aureus No. 1037. Description: Susceptibility (MIC) of Staphylococcus aureus No. 1037. The format is cell-based. The protocol:
(2)Susceptibility of the test miocroorganisms (MIC value):
as §1

A further data set concerns Escherichia coli ES-80. The data set can be described thus: Susceptibility (MIC), Escherichia coli ES-80 (Table 3). The data set is classed as cell-based. The protocol: as §1, §2, §3, §4
Another data set deals with Escherichia coli ES-69. Description: Susceptibility (MIC), Escherichia coli ES-69 (Table 3). The format is cell-based. The protocol: as §1, §2, §3, §4
The next data set has as its system Escherichia coli No. 29. The data set can be described thus: Minimum inhibitory concentration, Escherichia coli No. 29 (Table 1). The data set is classed as cell-based. The settings on record: dilution method, Chemotherapy 29(1), 76-79 (1981). As to the method:
as §5, §6

Another data set concerns Escherichia coli ES-68. Description: Susceptibility (MIC), Escherichia coli ES-68 (Table 3). The format is cell-based. The protocol: as §1, §2, §3, §4
Data set [5] deals with Escherichia coli NIH JC2 or Escherichia coli No. 29. Description: Time and concentration required for 99% sterilization, both strains together (Experiment 2). The format is cell-based. The following applies: in words. As to the method:
Additionally, the bactericidal effects of CCL were compared with those of CEX through the following in vitro tests (details of the tests are described afterwards). The concentrations of CCL or CEX and the time which are needed for diminishing 99% of the inoculum size were measured (FIG. 2, Table 2).
Heart infusion broth (Nissui Pharmaceutical Co.)
The test microorganisms at the logarithmic growth phase (about 10^6 CFU/ml) were spread into the aforementioned broth placed in tubes, to which CCL or CEX was applied at prefixed serial concentrations. Changing in the number of viable microorganisms was monitored in order to measure the time required for 99% sterilization of the inoculum size in each tube.

The conditions of data set [6]: clinical use; cited from earlier work.
Details of data set [7]: species or system healthy and adult men (volunteers). The settings on record: human, in vivo, po. The protocol: 250 mg Capsules of Keflex® (Shionogi & Co., (LTD-Lilly) as CEX and 250 mg capsules of Kefral® (Shionogi & Co., LTD-Lilly) as CCL were employed.
The subjects, 12 healthy and adult men aged 21 to 39 years with 1.58 to 1.83 m^2 in the body surface area.
To each subject after fasting, who had no meal after supper of the previous day, were given orally the capsules with 100 ml of warm water, and the fasting was continued for 2 hours, except giving them a prefixed amount of water. CEX and CCL were given to the 12 subjects in a cross-over method, and any drugs other than CEX or CCL were not applied for one week.
The blood was collected 8 times, just before the administration, after 0.5, 0.75, 1, 1.5, 2, 3 and 6 hours. The plasma was centrifugally separated under cooling immediately after each collection, rapidly frozen and then preserved at -20° C. until the time of measurement.
The measurement were made within a week after the collection. After the frozen samples were allowed to melt at 4° C., a series of ten-fold dilution was prepared with 0.1M of phosphate buffer (pH 6.0), on which the blood level was measured by a band culture method using Micrococcus luteus ATCC 9341 as standard. Antibiotic Medium No. 8 (Difco; hereinafter referred to as ABM 8) was employed as a medium.

Data set [8] concerns Staphylococcus aureus No. 6. Description: Susceptibility (MIC), Staphylococcus aureus No. 6 (Table 3). The data set is classed as cell-based. The protocol:
as §1, §2, §3, §4

With `N[C@@H](C(=O)N[C@@H]1C(=O)N2C(C(=O)O)=C(Cl)CS[C@H]12)c1ccccc1` [CCL, 3-chloro-7-D-(2-phenylglycinamido)-3-cephem-4-carboxylic acid monohydrate], the minimum inhibitory concentration (MIC) in [1] (NO.1021, 10^5 CFU/ml, Method 2) amounted to 3.13 µg/mL; in data set [1] (NO.1021, 10^6 CFU/ml, Method 1), 1.56 µg/mL; in [3] it was 3.13 µg/mL; in [4] (NO.1037, Method 1, Muller-Hinton agar) it was 1.56 µg/mL; in data set [4] (NO.1037, Method 2, ABM 3 broth, 18 to 20 hours after inoculation (10^5 CFU/ml)) it was 3.13 µg/mL; with Escherichia coli ES-80 (ES80, 10^5 CFU/ml, Method 2), 3.13 µg/mL. The MIC in the data set on Escherichia coli ES-80 (ES80, 10^6 CFU/ml, Method 1) stood at 1.56 µg/mL; against Escherichia coli ES-69 (10^5 CFU/ml, Method 2) it was 3.13 µg/mL; in the data set on Escherichia coli ES-69 (Escherichia coli, ES69, 10^6 CFU/ml, Method 1, read-out: MIC) it was 3.13 µg/mL; against Escherichia coli No. 29, 1.56 µg/mL; with Escherichia coli ES-68 (ES68, 10^5 CFU/ml, Method 2), 3.13 µg/mL; against Escherichia coli ES-68 (ES68, 10^6 CFU/ml, Method 1), 1.56 µg/mL. In addition, the minimal inhibitory concentration (MIC) was found to be 6.25 µg/mL in data set [8] (NO.6, 10^5 CFU/ml, Method 2) and 3.13 µg/mL in data set [8] (NO.6, 10^6 CFU/ml, Method 1). Also, the “antimicrobial spectrum compared with CEX” value in [2] was “broader spectrum”. Moreover, the “bactericidal action compared with CEX” value in data set [2] is “more potent bactericidal action than CEX”. In addition, the “time required for 99% sterilization compared with CEX” value in data set [5] (relative to CEX, monohydrate) is listed as “within a shorter period of time than CEX; also recorded: much shorter at any MIC of 1/2 to about 64 than for CEX”. Also, the clinical effectiveness entry in data set [6] is on record as “highly effective in clinical use”. For the same molecule, in [7], the “half-life compared with CEX” value is “half-life shorter”.
Turning to `CC1=C(C(=O)O)N2C(=O)[C@@H](NC(=O)[C@H](N)c3ccccc3)[C@H]2SC1` [CEX], the minimal inhibitory concentration (MIC) in [3] turned out to be 6.25 µg/mL (≈ 18 µM); in the data set on Escherichia coli No. 29 it was 3.13 µg/mL (≈ 9.01 µM). In data set [5] (multiples of MIC), the “concentration needed for diminishing 99% of the inoculum size” value was “at least one MIC; also recorded: one or more MICs”.
